Legend:
Phytophthora infestans = assay type: in vivo; conditions: 250 ppm spray, tomato seedling 4-leaf stage, 4th day after inoculation; untreated not less than 60%
[1] = test system: Pseudoperonospora cubensis; assay: Controlling effect against cucumber downy mildew (spray on cucumber seedlings, 250 ppm); assay type: in vivo; conditions: 250 ppm spray, cucumber seedling 1-leaf stage, 7th day after inoculation; untreated 60 to 80%
Description: A solution of the compound in acetone was diluted with water to 250 ppm, and the solution was sprayed to the cucumber seedling (breed: Sagamihangbak, two per plastic pot having a diameter of 7.5 cm) at 1-leaf stage in an amount of 10 mL of the compound/pot. After air-drying, the pot was transferred to a moist chamber provided in the greenhouse, and inoculated by spray with a zoosporic suspension of Pseudoperonospora cubensis. On the 7th day after inoculation the infected area rate for the leaves was examined. Evaluation was carried out by the following criteria.
The infected area rate for untreated groups in the examination was 60 to 80%.

Plasmopara viticola = assay: Controlling effect against grape downy mildew (leaf disk immersion, 250 ppm); assay type: in vivo; conditions: grape leaf disk immersed 3 hours, 10th day after inoculation, untreated 60 to 70%
Description: The developed leaf of grape seedling (breed: Cabernet Sauvignon) grown in 1/2000 a pot was cut and prepared a leaf disk having a diameter of 32 mm. A solution of the compound in acetone was diluted with water to 250 ppm, and the leaf disk was immersed for 3 hours. The disk was taken from the agent solution, subjected to air-drying, and then inoculated by spray with a zoosporangia suspension of Plasmopara viticola. The test disk was incubated at 18° C. for 12 hours in a light-dark light cycle. On the 10th day after inoculation the infected area rate for the leaf disk was examined. Evaluation was carried out by the following criteria. The infected area rate for the untreated groups in the examination was 60 to 70%.

Pyricularia oryzae = assay type: in vivo; conditions: 250 ppm spray, rice plant 4-leaf stage, 7th to 10th days after inoculation; untreated not less than 60

## CC(C)[C@@H](CNC(=O)c1cc2ccccc2o1)NC(=O)C(C)(C)NC(=O)OC(C)(C)C
other
  melting point: 140.5 °C

## Cc1ccc(C(=O)NC[C@@H](NC(=O)Oc2ccccc2)C(C)C)cc1 [Comparative Compound, reference compound]
Phytophthora infestans
  Effect: controlling effect against tomato late blight (infected area rate): C (Infected area rate of not less than 50%)
[1]
  Effect: controlling effect against cucumber downy mildew (infected area rate): C (the infected area rate of not less than 50%)
Plasmopara viticola
  Effect: controlling effect against grape downy mildew (infected area rate): C (the infected area rate of not less than 50%)
Pyricularia oryzae
  Effect: controlling effect against rice blast disease (number of lesions per pot): A (The number of lesions of less than 5)

## C#CC[C@H](NC(=O)OCC(C)C)C(=O)N[C@H](CNC(=O)c1ccc(C)cc1)C(C)C [Compound No. 76, N-[2-methyl-1-(S)-[[(4-methylbenzoyl)amino]methyl]propyl]2-(S)-[(2-methylpropyloxycarbonyl)amino]-4-pentynamide]
Phytophthora infestans
  Effect: controlling effect against tomato late blight (infected area rate): A (Infected area rate of less than 5%)
other
  melting point: 215.1 °C

## CC(C)OC(=O)N[C@H](C(=O)N[C@H](CNC(=O)c1ccccc1Cl)C(C)C)C(C)C [Compound No. 196, N-[1-(S)-[[(2-chlorobenzoyl)amino]methyl]-2-methylpropyl]3-methyl-2-(S)-[(1-methylethyloxycarbonyl)amino]butyramide]
Phytophthora infestans
  Effect: controlling effect against tomato late blight (infected area rate): A (Infected area rate of less than 5%)
[1]
  Effect: controlling effect against cucumber downy mildew (infected area rate): B (the infected area rate of 5% to less than 50%)
other
  melting point: 196.8 °C

## CC(C)OC(=O)N[C@@H](C)C(=O)N[C@H](CNC(=O)c1cc2ccccc2o1)C(C)C [Compound No. 599, N-[1-(S)-[[(benzofuran-2-carbonyl)amino]methyl]-2-methylpropyl]2-(S)-[(1-methylethyloxycarbonyl)amino]propionamide]
Phytophthora infestans
  Effect: controlling effect against tomato late blight (infected area rate): A (Infected area rate of less than 5%)
[1]
  Effect: controlling effect against cucumber downy mildew (infected area rate): A (the infected area rate of less than 5%)
Plasmopara viticola
  Effect: controlling effect against grape downy mildew (infected area rate): A (the infected area rate of less than 5%)
other
  melting point: 146.4 °C

## CC(C)[C@@H](CNC(=O)c1cc2ccccc2o1)NC(=O)[C@H](C)NC(=O)OC(C)(C)C [Compound No. 601, N-[1-(S)-[[(benzofuran-2-carbonyl)amino]methyl]-2-methylpropyl]2-(S)-[(1,1-dimethylethyloxycarbonyl)amino]propionamide]
Phytophthora infestans
  Effect: controlling effect against tomato late blight (infected area rate): B (Infected area rate of 5% to less than 50%)
[1]
  Effect: controlling effect against cucumber downy mildew (infected area rate): A (the infected area rate of less than 5%)
Plasmopara viticola
  Effect: controlling effect against grape downy mildew (infected area rate): B (the infected area rate of 5% to less than 50%)
other
  melting point: 163.1 °C

## CC[C@H](C)[C@@H](CNC(=O)c1ccc2ccccc2n1)NC(=O)[C@@H](NC(=O)OC)C(C)C [Compound No. 698, N-[1-(S)-[[(quinoline-2-carbonyl)amino]methyl]-2-(S)-methylbutyl]2-(S)-(methyloxycarbonylamino)-3-methylbutyramide]
Phytophthora infestans
  Effect: controlling effect against tomato late blight (infected area rate): A (Infected area rate of less than 5%)
[1]
  Effect: controlling effect against cucumber downy mildew (infected area rate): A (the infected area rate of less than 5%)
Plasmopara viticola
  Effect: controlling effect against grape downy mildew (infected area rate): B (the infected area rate of 5% to less than 50%)
other
  melting point: 174.6 °C

## C=COC(=O)N[C@H](C(=O)N[C@H](CNC(=O)c1cc2ccccc2o1)C(C)C)C(C)C [Compound No. 782, N-[1-(S)-[[(benzofuran-2-carbonyl)amino]methyl]-2-methylpropyl]3-methyl-2-(S)-[(vinyloxycarbonyl)amino]butyramide]
Phytophthora infestans
  Effect: controlling effect against tomato late blight (infected area rate): A (Infected area rate of less than 5%)
[1]
  Effect: controlling effect against cucumber downy mildew (infected area rate): A (the infected area rate of less than 5%)
Plasmopara viticola
  Effect: controlling effect against grape downy mildew (infected area rate): A (the infected area rate of less than 5%)
other
  melting point: 192.7 °C

## CCSC(=O)N[C@H](C(=O)N[C@H](CNC(=O)c1cc2ccccc2o1)C(C)C)C(C)C [Compound No. 793, N-[1-(S)-[[(benzofuran-2-carbonyl)amino]methyl]-2-methylpropyl][3-methyl-2-(S)-(ethylthiocarbonylamino)]butyramide]
Phytophthora infestans
  Effect: controlling effect against tomato late blight (infected area rate): A (Infected area rate of less than 5%)
[1]
  Effect: controlling effect against cucumber downy mildew (infected area rate): A (the infected area rate of less than 5%)
Plasmopara viticola
  Effect: controlling effect against grape downy mildew (infected area rate): A (the infected area rate of less than 5%)

## CC(C)OC(=O)N[C@H](C(=O)N[C@H](CNC(=O)c1cccc2onnc12)C(C)C)C(C)C [Compound No. 929, N-[1-(S)-[(benzoxadiazol-4-yl)carbonylaminomethyl]-2-methylpropyl]3-methyl-2-(S)-[(1-methylethyl)oxycarbonylamino]butyramide]
Phytophthora infestans
  Effect: controlling effect against tomato late blight (infected area rate): A (Infected area rate of less than 5%)
[1]
  Effect: controlling effect against cucumber downy mildew (infected area rate): A (the infected area rate of less than 5%)
Plasmopara viticola
  Effect: controlling effect against grape downy mildew (infected area rate): B (the infected area rate of 5% to less than 50%)
other
  melting point: 242.9 °C

## CC(C)OC(=O)N[C@H](C(=O)N[C@H](CNC(=O)c1cccc(Cl)n1)C(C)C)C(C)C [Compound No. 953, N-[1-(S)-[[(6-chloropyridine-2-carbonyl)amino]methyl]-2-methylpropyl]3-methyl-2-(S)-[(1-methylethyloxycarbonyl)amino]butyramide]
Phytophthora infestans
  Effect: controlling effect against tomato late blight (infected area rate): A (Infected area rate of less than 5%)
[1]
  Effect: controlling effect against cucumber downy mildew (infected area rate): A (the infected area rate of less than 5%)
Plasmopara viticola
  Effect: controlling effect against grape downy mildew (infected area rate): A (the infected area rate of less than 5%)
other
  melting point: 204.9 °C

## CC(C)COC(=O)N[C@H](C(=O)N[C@H](CNC(=O)c1cccs1)C(C)C)C(C)C [Compound No. 1020, N-[1-(S)-[[(thiophene-2-carbonyl)amino]methyl]-2-methylpropyl]3-methyl-2-(S)-[(2-methylpropyloxycarbonyl)amino]butyramide]
Phytophthora infestans
  Effect: controlling effect against tomato late blight (infected area rate): B (Infected area rate of 5% to less than 50%)
[1]
  Effect: controlling effect against cucumber downy mildew (infected area rate): B (the infected area rate of 5% to less than 50%)
other
  melting point: 204.9 °C

## CCC[C@H](NC(=O)OC(C)(C)C)C(=O)N[C@H](CNC(=O)c1ccc(C)cc1)C(C)C [compound 40, N-[2-methyl-1-(S)-[[(4-methylbenzoyl)amino]methyl]propyl]2-(S)-[(1,1-dimethylethyloxycarbonyl)amino]valeramide]
Phytophthora infestans
  Effect: controlling effect against tomato late blight (infected area rate): A (Infected area rate of less than 5%)
[1]
  Effect: controlling effect against cucumber downy mildew (infected area rate): A (the infected area rate of less than 5%)
Plasmopara viticola
  Effect: controlling effect against grape downy mildew (infected area rate): A (the infected area rate of less than 5%)

From patent publication US20070244153A1 (priority 2004, published 2007)
